Results taken from US20120202814A1, “COMPOUNDS WITH DDX3 INHIBITORY ACTIVITY AND USES THEREOF” (UNIVERSITÀ DEGLI STUDI DI SIENA, priority 2009, published 2012).
pEC50, pIC50: −log10 of the molar value. Like-named read-outs stand apart in the source and are kept apart here.

Experiments:
HIV-1 = assay: Antiviral assay, HIV-1 replication in infected PBMCs (viral RNA in supernatant); assay type: cell-based; conditions: Human immunodeficiency virus 1, PBMC, 72 h, read-out: EC50, anti-HIV activity
Description: FIG. 1. A) Antiviral activity (expressed as % of viral load with respect to the control) of compounds FE56 and FE66 at 0.3 μM and 3 μM doses against single round HIV-1 replication in HeLaCD4+ cells infected with a wild type HIV-1 strain. Measurements were performed at 72 h post infection. B) Antiviral activity of compounds FE15 and FE66 on HIV-1 replication in phytohemagglutinin-stimulated peripheral blood mononuclear cells (PBMCs) […] with HeLa CD4^+-cell culture supernatants containing wild type HIV. Compounds were tested at 50 μM (FE15) and 5 μM (FE66). The HIV-1 RNA was quantified in the cell culture supernatant after 3, and 5 days of incubation. Results are expressed as HIV RNA copies/ml. Control (white bars).
FIG. 2. Antiviral activity of DDX3 inhibitors. A) Comparison of the antiviral activity (expressed as % of viral RNA with respect to the control) on infected PBMCs of a fixed dose of selected inhibitors. Measurements were performed at 72 h post infection. Values are the means of three independent replicates. Error bars are ±SD. White bars: control without drugs; dark grey bar: positive control with AZT (0.01 μM); black bar: first generation inhibitor FE15 (50 μM); light grey bars: second generation DDX3 inhibitors FE66, 11d and 38 (3 μM). B) Dose-response curves for the inhibiton of HIV-1 replication (expressed as % of viral RNA with respect to the control) in infected PBMCs by FE15 (circles) and 38 (triangles). Measurements were performed at 72 h post infection. Values are the means of three independent replicates. Error bars are ±SD.
In detail, 0.5 μg of each HIV-1 plasmid construct was transfected into CD4 HeLa cells by using the lipofectin reagent, according to the recommendations of the manufacturer (Invitrogen, Groningen, The Netherlands). After 3 days of incubation at 37° C., the cell supernatants, which contained reconstituted viable recombinant viruses, were collected. Quantification of the newly produced recombinant strains was obtained by determination of the HIV RNA copy number in the cell culture supernatants. Successively, 10 ml of transfected HeLa CD4^+-cell culture supernatants containing wild-type, and mutated recombinant HIV strain […], was used to infect aliquots of 10×10^6 phytohemagglutinin-stimulated peripheral blood mononuclear cells (PBMCs) from HIV-seronegative blood donors. After 4 h of incubation, supernatants were removed and infected PBMCs were incubated at 37° C. in 10 ml of RPMI 1640 medium (Eurobio, Les Ulis Cedex B, France) supplemented with 20% fetal calf serum (Life Technologies, Ltd., Paisley, Scotland), 2 mM l-glutamine, 100 U of penicillin per ml, 100 μg of streptomycin per ml, 10% interleukin-2 (ZeptoMetrix Co., Buffalo, N.Y.), 5 μg of hydrocortisone (Sigma Chemical Co.) per ml and with fourfold dilutions of antiretroviral drugs. No-drug controls for each drug dilution were included in each assay. After 3, 5 and 7 days of incubation the HIV-1 RNA in the cell culture supernatant was quantified. Recombinant HIV-1 strains from treatment-naive patients and multidrug resistance-associated changes were assayed in parallel. The degree of inhibition of viral replication was measured by determining the HIV-1 RNA level in the supernatants of cell cultures and was expressed as the fold increase in the 50% inhibitory concentrations (IC50s) for resistant recombinant HIV-1 variants compared with the IC50s for the wild-type recombinant variant. Each test was performed in triplicate.

[1] = molecular target: T1, human DDX3 (ATPase activity) (Homo sapiens, UniProt O00571); assay: Human DDX3 ATPase activity assay (luciferase-based luminescence); assay type: biochemical; conditions: for Ki: DDX3 ATPase activity, read-out: Ki (μM), apparent equilibrium dissociation constant for the inhibitor to the target enzyme DDX3; for pIC50: ATPase activity, read-out: ATPase ID50
T1 construct: made in house; host or cells: E. coli
Description: ATPase activity was tested with a luciferase-based luminescence assay (Easylite-Kinase, Perkin Elmer) on 96 wells microtiter plates. Briefly, recombinant purified human DDX3 (50-100 ng) was incubated in a 15 μL total reaction volume with reaction buffer (25 mM TrisHCl pH 7.5, 5 mM MgCl2), in the presence of increasing amounts of ATP and/or different combinations of ATP and the inhibitor to be tested. Reference curves in the absence of inhibitor (giving the 100% of enzymatic activity) and in the absence of enzyme (giving the baseline), were also included in each experiment. Reading was performed with a Microbeta Trilux (Perkin Elmer) luminometer, according to the manufacturer's protocol.
ATPase reactions were performed as described, in the presence of increasing amounts of inhibitor and variable ATP concentrations. Variations of the initial velocities of the reaction as a function of ATP concentrations in the absence or presence of 4 were analyzed with the equation: […]
Variation of the % inhibition as a function of compound FE15 at different ATP concentrations were fitted to the equation for cooperative binding: […]
where Vmax is the apparent maximal rate of the reaction in the absence of the inhibitor, [I] is the variable inhibitor concentration, n is the cooperativity index and Ki(app) is the apparent inhibition constant. Comparatively, fitting was done with the same Eq. (2) where n was kept fixed at the value of 1 (non-cooperativity hypothesis). F test was used to compare the two fittings and p value was calculated.
(§1) Human recombinant DDX3 was cloned, expressed and purified as described (Franca et al. Proteins 2007, 67, 1128-37).
The anti-DDX3 activity of the compounds of the invention was evaluated by in vitro ATPase activity assay using the recombinant human DDX3 protein produced in E. coli. The potency of inhibition (Ki) for each molecule was calculated, representing the concentration of the inhibitor able to reduce the DDX3 ATPase activity by 50%

[2] = system: cervical cancer HeLa cell line; assay: Antiproliferative activity against HeLa cells (CellTiter viability assay); assay type: cell-based; conditions: Homo sapiens
Description: Selected compounds from Table 1 were tested against the cervical cancer HeLa cell line for antiproliferative activity. Cell viability was measured with the CellTiter viability assay (Table 2). Table 3 lists the calculated antiproliferative potencies (EC50, dose required to suppress 50% of cell viability) for a series of representative compounds of the invention.

[3] = molecular target: T2, human DDX3 (helicase activity) (Homo sapiens, UniProt O00571); assay: Human DDX3 helicase activity assay (ds to ss nucleic acid unwinding); assay type: biochemical; conditions: for fold higher potency against the helicase with respect to the ATPase activity: helicase versus ATPase ID50; for fold improvement in anti-helicase activity with respect to EI01: ratio of helicase ID50; for pIC50: anti-helicase activity, na = not active, read-out: Helicase ID50
T2 construct: made in house
Description: The helicase activity of DDX3 wt and mutant forms was monitored by measuring the conversion of a double stranded (ds) DNA or RNA (labelled at the 5′-end of one strand with a 6-FAM fluorescent group or P^32, respectively) into single stranded (ss) nucleic acid. Reactions were performed in 50 mM TrisHCl pH 7.5, 1 mM DTT, 0.2 mg/ml BSA, 5% glycerol and 100 μM ATP, 10 mM MgCl2 at 37° C. degrees for 10′ and stopped by adding EDTA 50 mM pH 8. Products were separated through non-denaturating 8% PAGE at 5 W for 2 hours in TBE buffer at 4° C. Substrates and products were quantified by laser scanning densitometry (Thyphoon-TRIO, GE Healthcare).
as §1
Compounds were obtained by application of a virtual docking protocol on the RNA-binding site identified in the homology model developed in the present invention. These compounds were commercially available (EI-compounds in Table 4). A few other compounds (25-31, EXAMPLE 6) were rationally designed to target the above mentioned RNA-binding site and then synthesized. All the compounds were tested for anti-helicase activity.

[4] = 48 hours, read-out: EC50 (μM) 48 hours, dose required to suppress 50% of cell viability
[5] = 72 hours, read-out: EC50 (μM) 72 hours, dose required to suppress 50% of cell viability

T2 sequence (O00571 whole entry): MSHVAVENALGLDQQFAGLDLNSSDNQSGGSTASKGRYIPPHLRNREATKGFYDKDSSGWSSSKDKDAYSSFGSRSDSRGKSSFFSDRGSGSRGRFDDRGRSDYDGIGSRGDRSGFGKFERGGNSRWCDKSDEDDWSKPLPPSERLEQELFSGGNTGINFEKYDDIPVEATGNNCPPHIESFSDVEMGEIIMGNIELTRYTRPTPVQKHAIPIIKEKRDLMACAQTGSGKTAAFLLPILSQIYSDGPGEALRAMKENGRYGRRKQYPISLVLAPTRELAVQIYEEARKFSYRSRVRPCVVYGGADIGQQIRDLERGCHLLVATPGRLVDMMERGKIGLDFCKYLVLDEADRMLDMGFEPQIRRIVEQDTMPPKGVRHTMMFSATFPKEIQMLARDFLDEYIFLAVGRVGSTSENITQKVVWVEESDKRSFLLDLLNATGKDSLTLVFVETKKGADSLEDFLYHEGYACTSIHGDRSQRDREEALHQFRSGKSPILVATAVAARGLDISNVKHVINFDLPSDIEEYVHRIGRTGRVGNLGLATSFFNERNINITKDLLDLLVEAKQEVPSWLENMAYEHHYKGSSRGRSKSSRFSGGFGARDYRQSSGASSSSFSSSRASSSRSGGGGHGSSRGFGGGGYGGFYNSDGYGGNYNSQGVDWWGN
T1 sequence (O00571 whole entry): as above

Compound | Ki [1] [µM] | EC50 [2, 4] [µM] | EC50 [2, 5] [µM] | pIC50 [3] | other results
Oc1ccccc1/C=N/Nc1nc(Nc2ccc(F)cc2)nc(N2CCOCC2)n1 [Compound 11d, (E)-2-((2-(4-(4-Fluorophenylamino)-6-morpholino-1,3,5-triazin-2-yl)hydrazono)methyl)phenol] | 0.4 |  |  |  | melting point: 234 °C; pEC50 (HIV-1): 5.60
CCN(CC)c1nc(NCc2ccccc2)nc(N/N=C2/C(=O)Nc3ccccc32)n1 [Compound 14g, (E)-3-(2-(4-(benzylamino)-6-(diethylamino)-1,3,5-triazin-2-yl)hydrazono)indolin-2-one] | 0.1 | 10 | 10 |  | 
CCN(CC)c1nc(NCc2ccccc2)nc(N/N=C/c2ccccc2O)n1 [Compound 15k, (E)-2-((2-(4-(benzylamino)-6-(diethylamino)-1,3,5-triazin-2-yl)hydrazono)methyl)phenol] | 0.5 | 3 | 1 |  | 
Cc1ccccc1NC(=O)Nc1cccc([N+](=O)[O-])c1 [Compound 25, 1-(3-nitrophenyl)-3-o-tolylurea] |  |  |  |  | fold higher potency against the helicase with respect to the ATPase activity [3]: 11 fold; fold improvement in anti-helicase activity with respect to EI01 [3]: 245 fold; pIC50 [1]: 4.96
Cc1ccccc1NC(=O)Nc1cccc(N)c1 [Compound 26, 1-(3-aminophenyl)-3-o-tolylurea] |  |  |  | 5.24 | fold improvement in anti-helicase activity with respect to EI01 [3]: 43 fold
O=C(Nc1cccc([N+](=O)[O-])c1)Nc1cccc([N+](=O)[O-])c1 [Compound 29, 1,3-bis(3-nitrophenyl)urea] |  |  |  | 4.28 | 
Nc1cccc(NC(=O)Nc2cccc(N)c2)c1 [Compound 30, 1,3-bis(3-aminophenyl)urea] |  |  |  | 4.62 | 
Cc1ccccc1NC(=O)Nc1cccc(NC(=O)Nc2cccc(NC(=O)Nc3ccccc3C)c2)c1 [Compound 31, 1,3-bis(3-{[(2-methylphenyl)carbamoyl]amino}phenyl)urea] |  |  |  | 2.89 | 
O=C(CCN1C(=O)/C(=C/c2ccc3c(c2)OCO3)SC1=S)Nc1ccccc1O [Compound 35f, 3-((Z)-5-((Benzo[d][1,3]dioxol-5-yl)methylene)-4-oxo-2-thioxothiazolidin-3-yl)-N-(2-hydroxyphenyl)propanamide] | 1 |  |  |  | melting point: 240 to 241 °C
O=C(CCN1C(=O)/C(=C/c2cccc(Br)c2)SC1=S)Nc1ccccc1[N+](=O)[O-] [Compound 35g, 3-((Z)-5-(3-Bromobenzylidene)-4-oxo-2-thioxothiazolidin-3-yl)-N-(2-nitrophenyl)propanamide] | 8.7 |  |  |  | melting point: 204 to 206 °C
O=C(CCN1C(=O)/C(=C/c2cccc(F)c2)SC1=S)Nc1ccccc1[N+](=O)[O-] [Compound 35h, 3-((Z)-5-(3-Fluorobenzylidene)-4-oxo-2-thioxothiazolidin-3-yl)-N-(2-nitrophenyl)propanamide] | 7.6 |  |  |  | melting point: 207 to 208 °C
Cc1ccc(NC(=O)c2cccc(NC(=O)Nc3cccc(C)c3C)c2)cc1C [EI-01A] |  |  |  | 3.88 | 
O=C(Nc1cccc(C(=O)Nc2ccccc2Cl)c1)Nc1ccccc1Cl [EI-01B] |  |  |  | 2.89 | 
Cc1ccccc1NC(=O)Nc1cccc(NC(=O)Nc2ccccc2C)c1 [EI-01] |  |  |  | 3.60 | fold higher potency against the helicase with respect to the ATPase activity [3]: did not discriminate between ATPase and helicase activities; pIC50 [1]: 3.61
COc1ccc(Nc2nc(NCc3ccco3)nc(N/N=C/c3cc([N+](=O)[O-])ccc3O)n2)cc1 [FE-56A] | 31.7 | 8 | 4 |  | 
CC(=O)Nc1ccc(/C(C)=N/Nc2nc(Nc3ccccc3)nc(Nc3ccccc3)n2)cc1 [FE-56F] | 0.3 | 10 | 5 |  | 
Cc1[nH]c2ccccc2c1/C=N/Nc1nc(Nc2ccc(F)cc2)nc(N2CCOCC2)n1 [FE-56M] | 0.2 | 10 | 5 |  | 
Clc1ccc(-c2ccc(/C=N/Nc3nc(Nc4ccccc4)nc(N4CCCCC4)n3)o2)cc1 [FE-56N] | 0.4 | 25 | 4 |  | 
